US11254686B1 (Corvus Pharmaceuticals, Inc., priority 2017, dated 2022)

Assays:
Type in all cases: biochemical
adenosine A3 receptor = adenosine A3 receptor (Homo sapiens (Human), UniProt P0DMS8); assay: Adenosine receptor activity assay (Table 1), A3 cAMP
Method: (§1) Table 1. Compounds (e.g., Adenosine Receptor modulators) and activity assay results. The legend is as follows: A=<10 nM; B=10-50 nM; C=50-100 nM; D=100-500; and E=>500 nM. The ratio corresponds to the A2A activity to the A2B activity; or A2A/A2B.

adenosine A2B receptor = adenosine A2B receptor (Homo sapiens (Human), UniProt P29275); assay: Adenosine receptor activity assay (Table 1), A2B activity; details: for Ratio: A2A activity to the A2B activity, A2A/A2B; for IC50: read-out: Ave A2B cAMP IC50
adenosine A2A receptor = adenosine A2A receptor (Homo sapiens (Human), UniProt P29274); assay: Adenosine receptor activity assay (Table 1), A2A activity; details: read-out: Ave A2A cAMP IC50
adenosine A1 receptor = adenosine A1 receptor (Homo sapiens (Human), UniProt P30542); assay: Adenosine receptor activity assay (Table 1), A1 cAMP
Method: as §1

adenosine A2A receptor, sequence (P29274 whole entry): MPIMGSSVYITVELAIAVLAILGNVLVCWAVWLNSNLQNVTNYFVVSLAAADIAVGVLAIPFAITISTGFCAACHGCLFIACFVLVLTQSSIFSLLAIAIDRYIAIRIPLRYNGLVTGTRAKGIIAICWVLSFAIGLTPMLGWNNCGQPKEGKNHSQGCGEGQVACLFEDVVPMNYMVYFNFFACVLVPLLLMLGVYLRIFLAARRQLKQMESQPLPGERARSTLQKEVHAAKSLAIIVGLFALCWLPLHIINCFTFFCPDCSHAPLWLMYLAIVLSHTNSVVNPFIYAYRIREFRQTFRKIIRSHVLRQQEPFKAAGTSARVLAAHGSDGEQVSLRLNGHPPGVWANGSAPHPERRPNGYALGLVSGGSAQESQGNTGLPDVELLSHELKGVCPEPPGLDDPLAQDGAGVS
adenosine A3 receptor, sequence (P0DMS8 whole entry): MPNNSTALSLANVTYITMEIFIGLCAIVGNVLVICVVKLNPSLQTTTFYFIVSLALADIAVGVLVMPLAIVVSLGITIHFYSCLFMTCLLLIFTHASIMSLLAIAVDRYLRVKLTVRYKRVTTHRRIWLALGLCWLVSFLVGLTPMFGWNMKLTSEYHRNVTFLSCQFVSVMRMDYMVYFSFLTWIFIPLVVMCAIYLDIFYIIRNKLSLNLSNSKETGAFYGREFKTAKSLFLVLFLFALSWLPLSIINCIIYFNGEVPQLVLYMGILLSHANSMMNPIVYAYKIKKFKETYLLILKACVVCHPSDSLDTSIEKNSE
adenosine A1 receptor, sequence (P30542 whole entry): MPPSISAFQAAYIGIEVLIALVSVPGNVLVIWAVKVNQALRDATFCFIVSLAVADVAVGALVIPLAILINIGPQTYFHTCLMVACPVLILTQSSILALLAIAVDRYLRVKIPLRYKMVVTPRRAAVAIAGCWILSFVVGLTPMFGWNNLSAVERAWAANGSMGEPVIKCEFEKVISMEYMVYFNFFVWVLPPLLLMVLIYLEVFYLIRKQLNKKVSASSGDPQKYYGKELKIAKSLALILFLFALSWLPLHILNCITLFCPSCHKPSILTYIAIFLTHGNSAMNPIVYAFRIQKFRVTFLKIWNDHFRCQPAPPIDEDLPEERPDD
adenosine A2B receptor, sequence (P29275 whole entry): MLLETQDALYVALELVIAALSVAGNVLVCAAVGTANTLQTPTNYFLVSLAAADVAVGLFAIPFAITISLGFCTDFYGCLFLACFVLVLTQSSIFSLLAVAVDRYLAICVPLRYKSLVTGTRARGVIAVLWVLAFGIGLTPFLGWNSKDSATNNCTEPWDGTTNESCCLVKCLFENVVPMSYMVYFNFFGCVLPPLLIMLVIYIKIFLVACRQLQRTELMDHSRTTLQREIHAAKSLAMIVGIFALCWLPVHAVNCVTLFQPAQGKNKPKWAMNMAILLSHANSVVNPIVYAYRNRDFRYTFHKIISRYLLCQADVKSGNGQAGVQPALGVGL

SMILES | IC50 (adenosine A3 receptor) [nM] | Ratio (adenosine A2B receptor) | IC50 (adenosine A2B receptor) [nM] | IC50 (adenosine A2A receptor) [nM] | IC50 (adenosine A1 receptor) [nM]
C[C@H](Nc1nc(C(=O)N[C@@H]2CC[C@H](O)C2)c2sccc2n1)c1cncc(F)c1 [Example Z402, 2-(((S)-1-(5-Fluoropyridin-3-yl)ethyl)amino)-N-((1R,3S)-3-hydroxycyclopentyl)thieno[3,2-d]pyrimidine-4-carboxamide] | 50 to 100 | 38.37 | < 10 | 50 to 100 | 100 to 500
C[C@H](Nc1nc(C(=O)NCCc2ccc(O)cc2)c2sccc2n1)c1ccnc(F)c1 [Example Z405, (S)-2-((1-(2-Fluoropyridin-4-yl)ethyl)amino)-N-(4-hydroxyphenethyl)thieno[3,2-d]pyrimidine-4-carboxamide] | > 500 | 28.50 | < 10 | 100 to 500 | > 500
C[C@H](Nc1nc(C(=O)NCCc2cccc(O)c2)c2sccc2n1)c1cncc(F)c1 [Example Z409, (S)-2-((1-(5-Fluoropyridin-3-yl)ethyl)amino)-N-(3-hydroxyphenethyl)thieno[3,2-d]pyrimidine-4-carboxamide] | 50 to 100 | 5.96 | < 10 | 10 to 50 | 50 to 100
C[C@H](Nc1nc(C(=O)NCCc2ccc(O)cc2)c2sccc2n1)c1ccccn1 [Example Z410, (S)—N-(4-Hydroxyphenethyl)-2-((1-(pyridin-2-yl)ethyl)amino)thieno[3,2-d]pyrimidine-4-carboxamide] | > 500 | 69.41 | < 10 | 100 to 500 | > 500
Cc1csc2c(C(=O)N3CCCC3)nc(N[C@@H](C)c3cncc(F)c3)nc12 [Example Z414, (S)-(2-((1-(5-Fluoropyridin-3-yl)ethyl)amino)-7-methylthieno[3,2-d]pyrimidin-4-yl)(pyrrolidin-1-yl)methanone] | 50 to 100 | 19.11 | < 10 | 10 to 50 | 50 to 100
CNC1CN(C(=O)c2nc(N[C@@H](C)c3cncc(F)c3)nc3cc(C)sc23)C1 [Example Z418, (S)-(2-((1-(5-Fluoropyridin-3-yl)ethyl)amino)-6-methylthieno[3,2-d]pyrimidin-4-yl)(3-(methylamino)azetidin-1-yl)methanone] | > 500 | 207.31 | 10 to 50 | > 500 | > 500
C[C@H](Nc1nc(C(=O)NCCc2cccc(O)c2)c2sccc2n1)c1cccnc1 [Example Z427, (S)—N-(3-Hydroxyphenethyl)-2-((1-(pyridin-3-yl)ethyl)amino)thieno[3,2-d]pyrimidine-4-carboxamide] | 100 to 500 | 5.03 | 50 to 100 | 100 to 500 | 100 to 500
C[C@H](Nc1nc(C(=O)NCCc2cccc(O)c2)c2sccc2n1)c1ccccn1 [Example Z428, (S)—N-(3-Hydroxyphenethyl)-2-((1-(pyridin-2-yl)ethyl)amino)thieno[3,2-d]pyrimidine-4-carboxamide] | > 500 | 10.94 | 10 to 50 | 100 to 500 | > 500
Cc1cc2nc(N[C@@H](C)c3cncc(F)c3)nc(C(=O)N3CC(NC(=O)OC(C)(C)C)C3)c2s1 [Example Z429, tert-Butyl (S)-(1-(2-((1-(5-Fluoropyridin-3-yl)ethyl)amino)-6-methylthieno[3,2-d]pyrimidine-4-carbonyl)azetidin-3-yl)carbamate] | 10 to 50 | 4.15 | < 10 | 10 to 50 | 50 to 100
COc1ccc([C@H](C)Nc2nc(C(=O)NCc3cccnc3)c3sccc3n2)cc1 [Example Z435, (S)-2-((1-(4-Methoxyphenyl)ethyl)amino)-N-(pyridin-3-ylmethyl)thieno[3,2-d]pyrimidine-4-carboxamide] | 50 to 100 | 0.04 | 100 to 500 | 10 to 50 | 100 to 500
Cc1csc2c(C(=O)NC3CCC3)nc(N[C@@H](C)c3ccccn3)nc12 [Example Z456, (S)—N-Cyclobutyl-7-methyl-2-((1-(pyridin-2-yl)ethyl)amino)thieno[3,2-d]pyrimidine-4-carboxamide] | 50 to 100 | 2.47 | < 10 | 10 to 50 | > 500

More lines, now with the values ahead:

IC50 (adenosine A3 receptor) [nM] | Ratio (adenosine A2B receptor) | IC50 (adenosine A2B receptor) [nM] | IC50 (adenosine A2A receptor) [nM] | IC50 (adenosine A1 receptor) [nM] | SMILES
> 500 | 42.24 | 10 to 50 | > 500 | > 500 | COC[C@@H](Nc1nc(C(=O)NCCc2ccc(O)cc2)c2sccc2n1)c1cccnc1 [Example Z403, (S)—N-(4-Hydroxyphenethyl)-2-((2-methoxy-1-(pyridin-3-yl)ethyl)amino)thieno[3,2-d]pyrimidine-4-carboxamide]
> 500 | 5.80 | < 10 | 10 to 50 | > 500 | C[C@H](Nc1nc(C(=O)N2CC(CNC(=O)OC(C)(C)C)C2)c2sccc2n1)c1cncc(F)c1 [Example Z404, tert-Butyl (S)-((1-(2-((1-(5-fluoropyridin-3-yl)ethyl)amino)thieno[3,2-d]pyrimidine-4-carbonyl)azetidin-3-yl)methyl)carbamate]
> 500 | 19.23 | < 10 | 100 to 500 | > 500 | COc1cccc(CCNC(=O)c2nc(N[C@@H](C)c3cncc(F)c3)nc3ccsc23)n1 [Example Z411, (S)-2-((1-(5-Fluoropyridin-3-yl)ethyl)amino)-N-(2-(6-methoxypyridin-2-yl)ethyl)thieno[3,2-d]pyrimidine-4-carboxamide]
> 500 | 126.84 | 10 to 50 | > 500 | > 500 | Cc1cc2nc(N[C@@H](C)c3cncc(F)c3)nc(C(=O)N3CC[C@@H](N)C3)c2s1 [Example Z413, ((R)-3-Aminopyrrolidin-1-yl)(2-(((S)-1-(5-fluoropyridin-3-yl)ethyl)amino)-6-methylthieno[3,2-d]pyrimidin-4-yl)methanone]
> 500 | 52.64 | < 10 | 100 to 500 | > 500 | Cc1csc2c(C(=O)N3CC[C@H](O)C3)nc(N[C@@H](C)c3cncc(F)c3)nc12 [Example Z416, (2-(((S)-1-(5-Fluoropyridin-3-yl)ethyl)amino)-7-methylthieno[3,2-d]pyrimidin-4-yl)((S)-3-hydroxypyrrolidin-1-yl)methanone]
> 500 | 7.52 | 10 to 50 | 100 to 500 | > 500 | COc1ccc(CCCNC(=O)c2nc(N[C@@H](C)c3cncc(F)c3)nc3ccsc23)cc1 [Example Z422, (S)-2-((1-(5-Fluoropyridin-3-yl)ethyl)amino)-N-(3-(4-methoxyphenyl)propyl)thieno[3,2-d]pyrimidine-4-carboxamide]
10 to 50 | 0.35 | 10 to 50 | 10 to 50 | 50 to 100 | Cc1csc2c(C(=O)NCc3ccccn3)nc(N[C@@H](C)c3ccccn3)nc12 [Example Z451, (S)-7-Methyl-2-((1-(pyridin-2-yl)ethyl)amino)-N-(pyridin-2-ylmethyl)thieno[3,2-d]pyrimidine-4-carboxamide]
